Assay results from patent US20250115582A1, “MOLECULAR GLUE DEGRADERS AND METHODS OF USING THE SAME” (Monte Rosa Therapeutics, Inc., priority 2022, published 2025).

Legend:
CK1α = target: T1, CK1α (Homo sapiens, UniProt P48729+Q96SW2); assay: CK1α NanoBiT assay (HiBiT-tagged CSNK1A1 in HEK293 clonal line); format: cell-based; conditions: HEK293 HiBiT-CSNK1A1/LgBiT cells, 24 h incubation, luminescence
T1 construct: HEK293 clonal line with CRISPR KI HiBiT tag on CSNK1A1; host or cells: HEK293 clonal line, CRISPR HiBiT knock-in at CSNK1A1, stably expressing LgBiT
T1 sequence (P48729 whole entry): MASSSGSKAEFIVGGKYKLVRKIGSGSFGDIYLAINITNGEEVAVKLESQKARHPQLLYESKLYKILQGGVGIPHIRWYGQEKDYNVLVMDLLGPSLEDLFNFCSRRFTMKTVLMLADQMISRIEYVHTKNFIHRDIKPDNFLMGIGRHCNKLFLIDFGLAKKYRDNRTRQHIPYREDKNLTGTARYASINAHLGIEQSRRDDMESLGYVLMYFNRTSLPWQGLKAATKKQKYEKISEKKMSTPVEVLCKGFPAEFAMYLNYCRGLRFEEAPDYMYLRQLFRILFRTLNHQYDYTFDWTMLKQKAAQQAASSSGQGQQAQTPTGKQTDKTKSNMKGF
T1 sequence (Q96SW2 whole entry): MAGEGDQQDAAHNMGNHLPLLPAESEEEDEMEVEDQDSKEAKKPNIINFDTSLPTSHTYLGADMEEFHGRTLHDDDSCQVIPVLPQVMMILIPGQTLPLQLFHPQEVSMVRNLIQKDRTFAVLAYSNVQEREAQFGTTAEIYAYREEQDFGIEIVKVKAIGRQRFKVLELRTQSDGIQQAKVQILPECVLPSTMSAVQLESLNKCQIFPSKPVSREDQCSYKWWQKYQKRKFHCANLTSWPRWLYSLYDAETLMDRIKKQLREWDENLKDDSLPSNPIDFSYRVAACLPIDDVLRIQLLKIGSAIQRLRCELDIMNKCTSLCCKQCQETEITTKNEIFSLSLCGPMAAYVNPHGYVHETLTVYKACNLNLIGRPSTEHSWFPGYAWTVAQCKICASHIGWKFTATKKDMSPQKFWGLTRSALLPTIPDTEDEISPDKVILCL
T1 sequence (Q16531 2-1140 partner limits assumed): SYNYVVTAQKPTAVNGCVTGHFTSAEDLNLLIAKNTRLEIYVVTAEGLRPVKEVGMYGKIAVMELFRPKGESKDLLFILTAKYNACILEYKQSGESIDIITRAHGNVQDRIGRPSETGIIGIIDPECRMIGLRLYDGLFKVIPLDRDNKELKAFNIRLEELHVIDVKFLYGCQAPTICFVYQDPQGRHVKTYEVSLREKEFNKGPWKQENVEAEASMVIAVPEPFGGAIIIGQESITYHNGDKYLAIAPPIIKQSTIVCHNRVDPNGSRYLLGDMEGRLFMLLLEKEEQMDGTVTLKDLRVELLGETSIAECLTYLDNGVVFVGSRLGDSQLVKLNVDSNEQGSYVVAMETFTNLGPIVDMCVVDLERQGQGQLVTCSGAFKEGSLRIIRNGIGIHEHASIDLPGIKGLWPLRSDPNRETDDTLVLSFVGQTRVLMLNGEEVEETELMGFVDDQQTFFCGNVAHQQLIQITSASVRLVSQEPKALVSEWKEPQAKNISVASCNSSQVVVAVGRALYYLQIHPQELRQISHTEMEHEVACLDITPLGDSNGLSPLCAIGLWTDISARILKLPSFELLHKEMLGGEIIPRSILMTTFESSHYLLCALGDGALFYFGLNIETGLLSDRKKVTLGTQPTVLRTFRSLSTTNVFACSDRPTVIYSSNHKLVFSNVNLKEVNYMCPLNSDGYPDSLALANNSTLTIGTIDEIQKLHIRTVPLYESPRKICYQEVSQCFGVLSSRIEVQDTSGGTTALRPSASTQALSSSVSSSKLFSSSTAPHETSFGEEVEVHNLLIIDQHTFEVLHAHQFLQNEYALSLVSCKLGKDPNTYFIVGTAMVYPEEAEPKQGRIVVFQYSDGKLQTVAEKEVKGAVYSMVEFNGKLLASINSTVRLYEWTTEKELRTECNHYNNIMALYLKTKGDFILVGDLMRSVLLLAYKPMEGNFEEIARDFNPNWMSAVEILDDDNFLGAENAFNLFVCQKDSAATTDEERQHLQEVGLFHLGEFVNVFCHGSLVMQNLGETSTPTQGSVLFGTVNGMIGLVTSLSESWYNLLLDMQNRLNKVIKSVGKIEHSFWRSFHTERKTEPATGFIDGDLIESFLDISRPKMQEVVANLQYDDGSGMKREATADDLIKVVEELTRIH
Procedure, shortened: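 HiBiT knock-in CSNK1A1 HEK293 cells stably expressing LgBiT were plated at 5000 cells/well in DMEM/10% FBS with 0.2% Endurazine live-cell substrate and pre-incubated 16 h. Compound was added to a final […] for 24 h at 37 °C before the luminescence read. Signal was normalised to plate controls, and DC50 came from a 3-parameter logistic fit (hillslope 1).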

SKCO1 = assay: GI50 growth inhibition, CyQUANT, SKCO1; format: cell-based; conditions: Homo sapiens, SK-CO-1, SKCO1 cells, 120 to 168 hours
Experimental: (§1) SKCO1, LS180, and LS174T cell lines were purchased from ATCC. CW2 cell line was purchased from Riken. GP2D cell line was purchased from Sigma/ECACC. All cell lines were cultured in manufacturer's recommended media at 37° C., 5% CO2. Briefly, cells were suspended in 200 μL of media and seeded at 300 to 1,800 cells per well in tissue culture treated 96-well plates with black walls and clear bottom. Plates were incubated overnight and initial (T0) read was performed the following day using CyQUANT Direct Cell Proliferation Assay Kit (Thermo Fisher Scientific) according to manufacturer's protocol. All compounds were solubilized in DMSO and prepared at 3-fold serial dilution, using 9 points starting at 30 μM as highest concentration, administered to cells and incubated for 120 to 168 hours, at which point CyQUANT assay measurement was performed using Acumen Cellista instrument (Ex/Em 480/520 nm). Media-only wells were used as blank, and 0.3% DMSO was used as DMSO-treated cell control. Growth inhibition (percent response) was calculated using the following formula in Excel: “=if ([Compound treated Day N]>[Untreated Day 0, AVG], ([Compound treated Day N]−[Untreated Day 0, AVG])/([Untreated Day N]−[Untreated Day 0, AVG])*100, ([Compound Treated Day N]−[Untreated Day 0, AVG])/([Untreated Day 0, AVG])*100)”. GI50 is the response corresponding to the 50% of untreated control.
(§2) GI50 data are reported in Tables 4a, 4b, 4c, 4d, and 4e for compounds in Table 1. In Tables 4a, 4b, 4c, 4d, and 4e below, According to the code, A represents a GI50 value of ≤0.1 μM, B represents a GI50 value>0.1 μM and ≤1 μM, C represents an GI50 value>1 μM.

CW2 = assay: GI50 growth inhibition, CyQUANT, CW2; format: cell-based; conditions: Homo sapiens, CW-2, CW2 cells, 120 to 168 hours
Experimental: as §1, §2

GP2D = assay: GI50 growth inhibition, CyQUANT, GP2D; format: cell-based; conditions: GP2D cells, 120 to 168 hours
Experimental: as §1, §2

LS180 = assay: GI50 growth inhibition, CyQUANT, LS180; format: cell-based; conditions: Homo sapiens, LS180 cells, 120 to 168 hours
Experimental: as §1, §2

LS174T = assay: GI50 growth inhibition, CyQUANT, LS174T; format: cell-based; conditions: Homo sapiens, LS174T cells, 120 to 168 hours
Experimental: as §1, §2

[1] = Mouse oral PK at 10 mg/kg; format: in vivo; conditions: male BALB/c mice, PO 10 mg/kg, plasma
Experimental: Male BALB/c mice were fasted overnight and administered a discrete, PO dose of Compound 154 or Compound 147 at 10 mg/kg.
Blood samples were collected serially from three animals/time-point following PO administration of the test compounds to the mice and placed in tubes containing K2EDTA. The blood samples were centrifuged, and the aliquots of the resulting plasma stored frozen at −60 to −90° C.
The plasma samples were analyzed by LC-MS/MS to determine concentrations of the test compounds. The in-life portion of the study and the bioanalysis of plasma samples was conducted at Wuxi (China).
The pharmacokinetic parameters for compound 154 or compound 147 were calculated by non-compartmental analysis using Phoenix WinNonlin software.

DC50 (CK1α) [µM] | GI50 (SKCO1) [nM] | Tmax [1] [h] | AUC ([1]; Mean ± SD) [ng·h/mL] | AUC(0-t) ([1]; Mean ± SD) [ng·h/mL] | Cmax ([1]; Mean ± SD) [ng/mL] | half-life ([1]; Mean ± SD) [h] | Compound | GI50 (CW2) [nM] | GI50 (GP2D) [nM] | GI50 (LS180) [nM] | GI50 (LS174T) [nM]
< 0.1 | < 100 | 1 | 50900 ± 10400 | 50900 ± 10300 | 12900 ± 2560 | 2.19 ± 0.24 | O=C1CCC(N2Cc3cc(NC(=O)c4ncn(-c5ccccc5)c4C(F)(F)F)ccc3C2=O)C(=O)N1 (stereo not drawn) [Compound 154, N-(2-(2,6-dioxopiperidin-3-yl)-1-oxoisoindolin-5-yl)-1-phenyl-5-(trifluoromethyl)-1H-imidazole-4-carboxamide] | < 100 | 100 to 1000 | 100 to 1000 | 100 to 1000
< 0.1 | 100 to 1000 | 0.5 | 1210 ± 235 | 1170 ± 258 | 574 ± 76.8 |  | O=C1CCC(N2Cc3cc(NC(=O)c4ccc(Cl)cc4)ccc3C2=O)C(=O)N1 (stereo not drawn) [Compound 147] | 100 to 1000 | > 1000 | > 1000 | > 1000
